From US11865096B2, “Oils with anti-inflammatory activity containing natural specialized proresolving mediators and their precursors” (Solutex NA LLC, priority 2012, dated 2024)

Columns and labels:
[1] = tested on: zymosan A-induced peritoneal inflammation (inflammatory exudate cells); assay: Murine peritoneal inflammation induced by zymosan A, exudate cells by FACS; format: in vivo, mouse; details: 4 hours after 0.1 mg zymosan A i.p., vs vehicle
Experimental: With respect to 17-HDHA, it is possible that the anti-inflammatory activity of oil fraction 1 (shown in FIG. 1A) can therefore be explained, at least in part, due to the selective enrichment of this anti-inflammatory SPM precursor into this oil fraction. In order to determine the anti-inflammatory action and contribution of 17-HDHA, the anti-inflammatory effect of fraction 1 was determined in a well-known model of sterile inflammation. […] Vehicle (100 microliter sterile salive), 100 microliter oil fraction 1, or 1 microgram synthetic 17S-HDHA (Cayman Chemicals) in sterile salive was administered by gavage 30 minutes prior to intraperitoneal injection of 0.1 mg zymosan A. Oil fraction 1 analyzed here is the same as fraction number 1 shown in FIGS. 1, 2, and 3. After 4 hours, the inflammatory exudate was recovered and the changes in the number and types of inflammatory cells determined by fluorescent-activated cell sorting employing specific fluorescently-labeled antibodies. Values are mean±standard error of the mean of […] individual mice. Statistically significant differences (Student's t-test) are indicated by * (P<0,05) or # (P<0,10) for comparisons of inflammatory exudate cell numbers obtained after treatment with oil fraction 1 or compared to the vehicle-treated mice. […] This anti-inflammatory effect was reproduced by the oral administration (gavage) of 17S-HDHA.

[2] = tested on: LPS-induced inflammation (neutrophil infiltration, myeloperoxidase bioluminescence); assay: Murine subcutaneous LPS-induced inflammation, neutrophil activity by luminol bioluminescence; format: in vivo, mouse; details: given by gavage 30 min prior to LPS (oil fraction 100 microliter; indomethacin 10 mg/kg), vs vehicle
Text: To evaluate the anti-inflammatory activity of distinct fatty acid-ethyl ester oil fractions obtained during supercritical fluid chromatography (SFC) for the industrial-scale manufacturing of EPA-ethyl ester and DHA-ethyl ester concentrates, a murine model of subcutaneous sterile inflammation was established which permitted measuring the effects of orally administered oil fractions on the pro-inflammatory phase of the inflammatory response. […] In order to initiate inflammation, Escherichia coli lipopolysaccharide (LPS; serotype 127:B8, purified by trichloroacetic acid extraction, Sigma-Aldrich) was injected sub-cutaneously as a single dose (5 milligram per kilogram in a 200 microliter volume of sterile […] dorsal hind flank of a mouse (CD1 mice of 9 weeks age and weighing approximately 30 grams, purchased from the Charles River company). Neutrophil infiltration into the site of inflammation was measured non-invasively by bioluminescence emitted by conversion of luminol by the neutrophil enzyme myeloperoxidase (Gross, 2009), permitting assessment of inflammatory changes over a 6 hour time period. […]

[3] = gavage 30 min prior (100 microliter oil fraction or 1 microgram 17S-HDHA)

| Compound | number of polymorphonuclear leukocytes (PMN) in exudate [1, 3] | total number of exudate cells [1, 3] | monocytes, macrophages or lymphocytes in exudate ([1]; gavage 30 min prior) | reduction of LPS-induced inflammation ([2]; 3 hours after LPS s.c.) [%] | reduction of LPS-induced inflammation ([2]; 6 hours after LPS s.c.) [%] |
| --- | --- | --- | --- | --- | --- |
| CC/C=C\C[C@H](O)/C=C/C=C\C/C=C\C/C=C\C/C=C\CCC(=O)O [17S-HDHA, 17S-hydroxy-docosa-4Z,7Z,10Z,13Z,15E,19Z-hexaenoic acid] | reproduced | reproduced | No statistically significant changes |  |  |
| COc1ccc2c(c1)c(CC(=O)O)c(C)n2C(=O)c1ccc(Cl)cc1 [indomethacin] |  |  |  | 26 | 44 |
